Each structure is given as a SMILES string.

The source of these data is US10711242B2, “Apparatus and methods for controlling cellular development” (The Board of Trustees of the Leland Stanford Junior …, priority 2008, dated 2020).

One assay has as its system ChR2-ESCs. In words: Retinoic acid-based neural differentiation of ChR2-ESCs, nestin expression. The assay is classed as cell-based, mouse. The note with it: differentiation day 8; retinoic acid-based neural differentiation protocol. An excerpt: (§1) We first verified that ChR2-ESCs were capable of neural lineage differentiation, using a retinoic acid-based neural differentiation protocol (FIG. 8c). At differentiation day 8, 40±10% of the cells expressed the neural lineage marker nestin. By day 14, a dense network of β-3-tubulin-positive ESC-derived immature neurons could be detected, followed by expression of the mature neuronal cytoskeletal protein MAP2 and the vesicular glutamate transporter II (vGlutll).
Neuronal differentiation was performed as previously described, with modifications. ESCs were plated on matrigel-coated dishes in embryoid body stage in complete ESC medium (see above). 24 hours later, medium was changed to ESC medium lacking LIF and including 5 μM retinoic acid, and changed every second day for 5 days. As a second differentiation step, cells were incubated with neural expansion medium for 7 days consisting of N2 supplement, SHH (50 ng/ml), FGF-8b (100 ng/ml), bFGF (10 ng/ml) and ascorbic acid (200 μM, Sigma) in DMEM/F12 and changed every two days. Thereafter cells were cultured in N2 and ascorbic acid in DMEM/F12.
Cells were fixed with 4% paraformaldehyde in PBS for 30 min at room temperature. Fixation was stopped by washing cells three times with 0.1M glycine/PBS. Cells were permeabilized and blocked (4% BSA/0.4% saponin/PBS) for 30 min and incubated in primary antibody solution at 4° C. overnight. […]

A further assay relates to ChR2-ESC-derived neurons. In words: Patch-clamp recording of excitatory postsynaptic currents in ChR2-ESC-derived neurons. The class given is cell-based, mouse. The note with it: differentiation day 28.
From the text: as §1
Neuronal differentiation was performed as previously described, with modifications. ESCs were plated on matrigel-coated dishes in embryoid body stage in complete ESC medium (see above). […]
For acute slice electrophysiological experiments, 1 week post cell transplantation, 250 μm cortical slices were prepared in ice-cold cutting buffer (64 mM NaCl, 25 mM NaHCO3, 10 mM glucose, 120 mM sucrose, 2.5 mM KCl, 1.25 mM NaH2PO4, 0.5 mM CaCl2 and 7 mM MgCl2, equilibrated with 95% O2/5% CO2) using a vibratome (VT 1000 S; Leica). […] Images were recorded with a CCD camera (Retiga Exi, Qimaging) by Qimaging software. […] Membrane currents were measured with the patch-clamp technique in whole-cell mode using Axon Multiclamp 700B (Axon Instruments) amplifiers. […] Through a 20× objective lens, power density of the blue light was 8-12 mW/mm^2, measured by power meter (Newport). […]

`CC1=C(/C=C/C(C)=C/C=C/C(C)=C/C(=O)O)C(C)(C)CCC1` [RA, retinoic acid]: the “cells expressing the neural lineage marker nestin” value in the assay with ChR2-ESCs is recorded as 40±10%.
In the case of `N#Cc1cc2[nH]c(=O)c(=O)[nH]c2cc1[N+](=O)[O-]` [CNQX], the “block of excitatory postsynaptic currents” value with ChR2-ESC-derived neurons is listed as “blocked”.
The same measure, in the same setting: the result for `NC(CCCP(=O)(O)O)C(=O)O` [D-AP5] reads “blocked”.
